Reference: patent US8853258B2, “C-linked hydroxamic acid derivatives useful as antibacterial agents” (Pfizer Inc., priority 2009, dated 2014)
Converted amounts (≈) assume the structure as drawn.

Experiments:
Assay type in all cases: cell-based
[1] = tested on: Acinetobacter baumanii/haemolyticus: Multidrug-resistant clinical isolate (AB-3167); assay: MIC determination (CLSI), AB-3167; conditions: Acinetobacter baumannii; Table 3; read-out: AB-3167 MIC
Procedure, shortened: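 Multidrug-resistant clinical isolate AB-3167 (A. baumannii/haemolyticus) tested for minimum inhibitory concentration following CLSI dilution susceptibility standards M7-A7 and M100-S18.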

[2] = tested on: Escherichia coli EC-1: VOGEL, mouse virulent; assay: MIC determination (CLSI), EC-1; conditions: Escherichia coli, read-out: EC-1 MIC
Procedure, shortened: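 E. coli Vogel, a mouse-virulent strain (EC-1), was tested. MICs were set by dilution susceptibility testing per CLSI standards M7-A7/M100-S18.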

[3] = tested on: Klebsiella pneumoniae: Ciprofloxacin-resistant isolate, ESBL, clinical isolate (KP-3700); assay: MIC determination (CLSI), KP-3700
Procedure, shortened: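 MIC measured by broth dilution according to CLSI M7-A7 and M100-S18 standards. Test organism was a ciprofloxacin-resistant, ESBL-expressing clinical isolate.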

[4] = tested on: Pseudomonas aeruginosa UI-18: Wild-type (PA-7); assay: MIC determination (CLSI), PA-7; conditions: Pseudomonas aeruginosa; Table 3; read-out: PA-7 MIC
Procedure, shortened: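 MIC by dilution method per CLSI M7-A7 and M100-S18 guidelines. Strain: wild-type Pseudomonas aeruginosa UI-18.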

SMILES: CC(CCc1ccc(OCc2ccc(C#N)cc2)cc1)(C(=O)NO)S(C)(=O)=O (stereo not shown) [Example 233, 4-{4-[(4-cyanobenzyl)oxy]phenyl}-N-hydroxy-2-methyl-2-(methylsulfonyl)butanamide]
- MIC [1]: ≥ 64 µg/mL
- MIC [2]: 4 µg/mL (≈ 9.94 µM)
- KP-3700 MIC [3]: 16 µg/mL
- MIC [4]: 4 µg/mL (≈ 9.94 µM)

SMILES: CC(C)Oc1ccc(CCC(C)(C(=O)NO)S(C)(=O)=O)cc1 (stereo not shown) [Example 234, N-hydroxy-4-(4-isopropoxyphenyl)-2-methyl-2-(methylsulfonyl)butanamide]
- MIC [1]: ≥ 64 µg/mL
- MIC [2]: ≥ 64 µg/mL
- KP-3700 MIC [3]: ≧64 mg/L
- MIC [4]: 8 µg/mL (≈ 24.3 µM)

SMILES: CCOc1ccc(CCC(C)(C(=O)NO)S(C)(=O)=O)cc1 (stereo not shown) [Example 235, 4-(4-ethoxyphenyl)-N-hydroxy-2-methyl-2-(methylsulfonyl)butanamide]
- MIC [1]: ≥ 64 µg/mL
- MIC [2]: 32 µg/mL (≈ 101 µM)
- KP-3700 MIC [3]: ≧64 mg/L
- MIC [4]: 16 µg/mL (≈ 50.7 µM)

SMILES: CCCCOc1ccc(CCC(C)(C(=O)NO)S(C)(=O)=O)cc1 (stereo not shown) [Example 236, 4-(4-butoxyphenyl)-N-hydroxy-2-methyl-2-(methylsulfonyl)butanamide]
- MIC [1]: 32 µg/mL (≈ 93.2 µM)
- MIC [2]: 16 µg/mL (≈ 46.6 µM)
- KP-3700 MIC [3]: ≧64 mg/L
- MIC [4]: 8 µg/mL (≈ 23.3 µM)

SMILES: CCCOc1ccc(CCC(C)(C(=O)NO)S(C)(=O)=O)cc1 (stereo not shown) [Example 237, N-hydroxy-2-methyl-2-(methylsulfonyl)-4-(4-propoxyphenyl)butanamide]
- MIC [1]: ≥ 64 µg/mL
- MIC [2]: 32 µg/mL (≈ 97.1 µM)
- KP-3700 MIC [3]: ≧64 mg/L
- MIC [4]: 8 µg/mL (≈ 24.3 µM)

SMILES: CC(CCc1ccc(OC2CCCCC2)cc1)(C(=O)NO)S(C)(=O)=O (stereo not shown) [Example 238, 4-[4-(cyclohexyloxy)phenyl]-N-hydroxy-2-methyl-2-(methylsulfonyl)butanamide]
- MIC [1]: 32 µg/mL (≈ 86.6 µM)
- MIC [2]: 32 µg/mL (≈ 86.6 µM)
- KP-3700 MIC [3]: ≧64 mg/L
- MIC [4]: 8 µg/mL (≈ 21.7 µM)

SMILES: CCC(CC)COc1ccc(CCC(C)(C(=O)NO)S(C)(=O)=O)cc1 (stereo not shown) [Example 239, 4-[4-(2-ethylbutoxy)phenyl]-N-hydroxy-2-methyl-2-(methylsulfonyl)butanamide]
- MIC [1]: 4 µg/mL (≈ 10.8 µM)
- MIC [2]: 16 µg/mL (≈ 43.1 µM)
- KP-3700 MIC [3]: ≧64 mg/L
- MIC [4]: 8 µg/mL (≈ 21.5 µM)

SMILES: CCC(c1ccccc1)c1noc(COc2ccc(CCC(C)(C(=O)NO)S(C)(=O)=O)cc2)n1 (stereo not shown) [Example 240, N-hydroxy-2-methyl-2-(methylsulfonyl)-4-(4-{[3-(1-phenylpropyl)-1,2,4-oxadiazol-5-yl]methoxy}phenyl)butanamide]
- MIC [1]: ≥ 64 µg/mL
- MIC [2]: 32 µg/mL (≈ 65.6 µM)
- KP-3700 MIC [3]: ≧64 mg/L
- MIC [4]: ≥ 64 µg/mL

SMILES: CC(CCc1ccc(OCc2nc(-c3cccc(F)c3)no2)cc1)(C(=O)NO)S(C)(=O)=O (stereo not shown) [Example 241, 4-(4-{[3-(3-fluorophenyl)-1,2,4-oxadiazol-5-yl]methoxy}phenyl)-N-hydroxy-2-methyl-2-(methylsulfonyl)butanamide]
- MIC [1]: 16 µg/mL (≈ 34.5 µM)
- MIC [2]: 8 µg/mL (≈ 17.3 µM)
- KP-3700 MIC [3]: ≧64 mg/L
- MIC [4]: 32 µg/mL (≈ 69 µM)

SMILES: CC(CCc1ccc(OCCCOCc2ccccc2)cc1)(C(=O)NO)S(C)(=O)=O (stereo not shown) [Example 243, 4-{4-[3-(benzyloxy)propoxy]phenyl}-N-hydroxy-2-methyl-2-(methylsulfonyl)butanamide]
- MIC [1]: 32 µg/mL (≈ 73.5 µM)
- MIC [2]: 32 µg/mL (≈ 73.5 µM)
- KP-3700 MIC [3]: ≧64 mg/L
- MIC [4]: ≥ 64 µg/mL

SMILES: Cc1ncccc1COc1ccc(CCC(C)(C(=O)NO)S(C)(=O)=O)cc1 (stereo not shown) [Example 245, N-hydroxy-2-methyl-4-{4-[(2-methylpyridin-3-yl)methoxy]phenyl}-2-(methylsulfonyl)butanamide]
- MIC [1]: ≥ 64 µg/mL
- MIC [2]: ≥ 64 µg/mL
- KP-3700 MIC [3]: ≧64 mg/L
- MIC [4]: 32 µg/mL (≈ 81.5 µM)

SMILES: CC(CCc1ccc(OCC2CC2)cc1)(C(=O)NO)S(C)(=O)=O (stereo not shown) [Example 246, 4-[4-(cyclopropylmethoxy)phenyl]-N-hydroxy-2-methyl-2-(methylsulfonyl)butanamide]
- MIC [1]: ≥ 64 µg/mL
- MIC [2]: 32 µg/mL (≈ 93.7 µM)
- KP-3700 MIC [3]: ≧64 mg/L
- MIC [4]: ≥ 64 µg/mL

SMILES: CC(CCc1ccc(OCCOc2ccccc2)cc1)(C(=O)NO)S(C)(=O)=O (stereo not shown) [Example 248, N-hydroxy-2-methyl-2-(methylsulfonyl)-4-[4-(2-phenoxyethoxy)phenyl]butanamide]
- MIC [1]: 32 µg/mL (≈ 78.5 µM)
- MIC [2]: 2 µg/mL (≈ 4.91 µM)
- KP-3700 MIC [3]: 8 µg/mL
- MIC [4]: 32 µg/mL (≈ 78.5 µM)

SMILES: CC(CCc1ccc(OCc2ccc(F)cc2C(F)(F)F)cc1)(C(=O)NO)S(C)(=O)=O (stereo not shown) [Example 249, 4-(4-{[4-fluoro-2-(trifluoromethyl)benzyl]oxy}phenyl)-N-hydroxy-2-methyl-2-(methylsulfonyl)butanamide]
- MIC [1]: 16 µg/mL (≈ 34.5 µM)
- MIC [2]: 16 µg/mL (≈ 34.5 µM)
- KP-3700 MIC [3]: ≧64 mg/L
- MIC [4]: 16 µg/mL (≈ 34.5 µM)

SMILES: CC(CCc1ccc(OCc2cccc(Cl)c2)cc1)(C(=O)NO)S(C)(=O)=O (stereo not shown) [Example 250, 4-{4-[(3-chlorobenzyl)oxy]phenyl}-N-hydroxy-2-methyl-2-(methylsulfonyl)butanamide]
- MIC [1]: 4 µg/mL (≈ 9.71 µM)
- MIC [2]: 2 µg/mL (≈ 4.86 µM)
- KP-3700 MIC [3]: 8 µg/mL
- MIC [4]: 4 µg/mL (≈ 9.71 µM)

SMILES: CCCCCCOc1ccc(CCC(C)(C(=O)NO)S(C)(=O)=O)cc1 (stereo not shown) [Example 252, 4-[4-(hexyloxy)phenyl]-N-hydroxy-2-methyl-2-(methylsulfonyl)butanamide]
- MIC [1]: 4 µg/mL (≈ 10.8 µM)
- MIC [2]: 8 µg/mL (≈ 21.5 µM)
- KP-3700 MIC [3]: 32 µg/mL
- MIC [4]: 16 µg/mL (≈ 43.1 µM)

SMILES: CC(CCc1ccc(OCc2nc(-c3cccc(F)c3F)no2)cc1)(C(=O)NO)S(C)(=O)=O (stereo not shown) [Example 253, 4-(4-{[3-(2,3-difluorophenyl)-1,2,4-oxadiazol-5-yl]methoxy}phenyl)-N-hydroxy-2-methyl-2-(methylsulfonyl)butanamide]
- MIC [1]: ≥ 64 µg/mL
- MIC [2]: 8 µg/mL (≈ 16.6 µM)
- KP-3700 MIC [3]: ≧64 mg/L
- MIC [4]: 32 µg/mL (≈ 66.5 µM)

SMILES: Cc1ccc(C)c(COc2ccc(CCC(C)(C(=O)NO)S(C)(=O)=O)cc2)c1 (stereo not shown) [Example 254, 4-{4-[(2,5-dimethylbenzyl)oxy]phenyl}-N-hydroxy-2-methyl-2-(methylsulfonyl)butanamide]
- MIC [1]: 16 µg/mL (≈ 39.5 µM)
- MIC [2]: 8 µg/mL (≈ 19.7 µM)
- KP-3700 MIC [3]: ≧64 mg/L
- MIC [4]: 16 µg/mL (≈ 39.5 µM)

SMILES: CC(CCc1ccc(OCc2nc(-c3cc(F)cc(F)c3)no2)cc1)(C(=O)NO)S(C)(=O)=O (stereo not shown) [Example 255, 4-(4-{[3-(3,5-difluorophenyl)-1,2,4-oxadiazol-5-yl]methoxy}phenyl)-N-hydroxy-2-methyl-2-(methylsulfonyl)butanamide]
- MIC [1]: 16 µg/mL (≈ 33.2 µM)
- MIC [2]: 16 µg/mL (≈ 33.2 µM)
- KP-3700 MIC [3]: ≧64 mg/L
- MIC [4]: ≥ 64 µg/mL

SMILES: CC(CCc1ccc(OCc2nc(Cc3cc(F)ccc3F)no2)cc1)(C(=O)NO)S(C)(=O)=O (stereo not shown) [Example 256, 4-(4-{[3-(2,5-difluorobenzyl)-1,2,4-oxadiazol-5-yl]methoxy}phenyl)-N-hydroxy-2-methyl-2-(methylsulfonyl)butanamide]
- MIC [1]: ≥ 64 µg/mL
- MIC [2]: 32 µg/mL (≈ 64.6 µM)
- KP-3700 MIC [3]: ≧64 mg/L
- MIC [4]: ≥ 64 µg/mL

SMILES: Cc1cc(C)cc(COc2ccc(CCC(C)(C(=O)NO)S(C)(=O)=O)cc2)c1 (stereo not shown) [Example 257, 4-{4-[(3,5-dimethylbenzyl)oxy]phenyl}-N-hydroxy-2-methyl-2-(methylsulfonyl)butanamide]
- MIC [1]: ≥ 64 µg/mL
- MIC [2]: 4 µg/mL (≈ 9.86 µM)
- KP-3700 MIC [3]: 32 µg/mL
- MIC [4]: 32 µg/mL (≈ 78.9 µM)

SMILES: COc1ccc(F)c(-c2noc(COc3ccc(CCC(C)(C(=O)NO)S(C)(=O)=O)cc3)n2)c1 (stereo not shown) [Example 259, 4-(4-{[3-(2-fluoro-5-methoxyphenyl)-1,2,4-oxadiazol-5-yl]methoxy}phenyl)-N-hydroxy-2-methyl-2-(methylsulfonyl)butanamide]
- MIC [1]: ≥ 64 µg/mL
- MIC [2]: 16 µg/mL (≈ 32.4 µM)
- KP-3700 MIC [3]: ≧64 mg/L
- MIC [4]: ≥ 64 µg/mL

SMILES: Cc1cccc(COc2ccc(CCC(C)(C(=O)NO)S(C)(=O)=O)cc2)c1F (stereo not shown) [Example 262, 4-{4-[(2-fluoro-3-methylbenzyl)oxy]phenyl}-N-hydroxy-2-methyl-2-(methylsulfonyl)butanamide]
- MIC [1]: 16 µg/mL (≈ 39.1 µM)
- MIC [2]: 1 µg/mL (≈ 2.44 µM)
- KP-3700 MIC [3]: 8 µg/mL
- MIC [4]: 2 µg/mL (≈ 4.88 µM)

SMILES: Cc1ccc(COc2ccc(CCC(C)(C(=O)NO)S(C)(=O)=O)cc2)cc1 (stereo not shown) [Example 263, N-hydroxy-2-methyl-4-{4-[(4-methylbenzyl)oxy]phenyl}-2-(methylsulfonyl)butanamide]
- MIC [1]: 16 µg/mL (≈ 40.9 µM)
- MIC [2]: 2 µg/mL (≈ 5.11 µM)
- KP-3700 MIC [3]: 8 µg/mL
- MIC [4]: 4 µg/mL (≈ 10.2 µM)

SMILES: CC(CCc1ccc(OCCCc2ccccc2)cc1)(C(=O)NO)S(C)(=O)=O (stereo not shown) [Example 264, N-hydroxy-2-methyl-2-(methylsulfonyl)-4-[4-(3-phenylpropoxy)phenyl]butanamide]
- MIC [1]: 8 µg/mL (≈ 19.7 µM)
- MIC [2]: 4 µg/mL (≈ 9.86 µM)
- KP-3700 MIC [3]: 16 µg/mL
- MIC [4]: 32 µg/mL (≈ 78.9 µM)

SMILES: CC(CCc1ccc(OCC2CCC2)cc1)(C(=O)NO)S(C)(=O)=O (stereo not shown) [Example 266, 4-[4-(cyclobutylmethoxy)phenyl]-N-hydroxy-2-methyl-2-(methylsulfonyl)butanamide]
- MIC [1]: 32 µg/mL (≈ 90 µM)
- MIC [2]: 32 µg/mL (≈ 90 µM)
- KP-3700 MIC [3]: ≧64 mg/L
- MIC [4]: 16 µg/mL (≈ 45 µM)

SMILES: CC(C)CCCOc1ccc(CCC(C)(C(=O)NO)S(C)(=O)=O)cc1 (stereo not shown) [Example 267, N-hydroxy-2-methyl-4-{4-[(4-methylpentyl)oxy]phenyl}-2-(methylsulfonyl)butanamide]
- MIC [1]: 8 µg/mL (≈ 21.5 µM)
- MIC [2]: 8 µg/mL (≈ 21.5 µM)
- KP-3700 MIC [3]: ≧64 mg/L
- MIC [4]: 16 µg/mL (≈ 43.1 µM)

SMILES: CC(CCc1ccc(OCc2cccc(F)c2)cc1)(C(=O)NO)S(C)(=O)=O (stereo not shown) [Example 268, 4-{4-[(3-fluorobenzyl)oxy]phenyl}-N-hydroxy-2-methyl-2-(methylsulfonyl)butanamide]
- MIC [1]: 16 µg/mL (≈ 40.5 µM)
- MIC [2]: 2 µg/mL (≈ 5.06 µM)
- KP-3700 MIC [3]: 8 µg/mL
- MIC [4]: 8 µg/mL (≈ 20.2 µM)
